{"source": "patent US4600710A", "about": "“β-Adrenergic receptor agonist alkylaminoalkyl pyridinemethanol derivatives” (G. D. Searle & Co., priority 1985, dated 1986)", "key": {"[1]": {"test_system": "spontaneously hypertensive rats", "assay": "Intravenous dose-response studies in conscious spontaneously hypertensive rats", "format": "in vivo, rat", "conditions": "conscious SHR", "method": "Six adult male spontaneously hypertensive rats were anesthetized with ether and instrumented with carotid artery and jugular vein catheters. The rats were allowed to recover from surgery and ether anesthesia for three to five hours. The test compound was administered intravenously in saline at doses of 0.1, 0.2, 0.7, 2, 7, and 20 mg/kg to give cumulative doses of 0.1, 0.3, 1, 3, 10, and 30 mg/kg. At the completion of these injections propranolol, a beta-adrenergic antagonist, was administered intravenously at a dose of 1 mg/kg and the injections of the test compound were repeated. The volume of each injection was 0.1 ml/100 grams of body weight. Mean arterial pressure and heart rate were measured via the carotid artery with a Statham pressure transducer and Gould physiological recorder. Results were analyzed using a paired t-test."}, "[2]": {"test_system": "spontaneously hypertensive rats", "assay": "Systemic hemodynamics in pentobarbital anesthetized spontaneously hypertensive rats", "format": "in vivo, rat", "method": "Five adult male spontaneously hypertensive rats were anesthetized with sodium pentobarbital and instrumented with a femoral artery catheter for measuring arterial pressure and heart rate. The jugular vein was catheterized for injections and a thermocouple was placed in the aortic arch via the carotid artery for cardiac output measurement by the thermodilution technique. The trachea was cannulated and the rats breathed 100% oxygen. Control readings were taken and the test compound was injected in doses ranging from 0.1 to 30 mg/kg iv. After the 30 mg/kg dose, propranolol was injected iv at a dose of 1 mg/kg. Changes in hemodynamic parameters from control readings were analyzed by the paired t-test."}, "[3]": {"test_system": "spontaneously hypertensive rats", "assay": "Oral dosing studies in conscious spontaneously hypertensive rats", "format": "in vivo, rat", "conditions": "conscious SHR, daily oral dosing 100 mg/kg for 3 days", "method": "Ten adult male spontaneously hypertensive rats were anesthetized with sodium pentobarbital and instrumented with a carotid arterial catheter. On the following day each rat was tethered in a plastic cage and arterial blood pressure and heart rate were monitored via the arterial catheter continuously for 72 hours. Each rat was dosed intragastrically with 100 mg/kg of the test compound each day for three days. A vehicle treated group (saline) of 10 rats was tested simultaneously. Differences in blood pressure between the treated and vehicle group were analyzed by the Kraskal-Wallis and Wilcoxon rank sum tests."}, "β-adrenergic receptor": {"target": "T1, β-adrenergic receptor (Rattus norvegicus, UniProt P10608)", "T1 construct": "Rat cerebellums were homogenized in 20 volumes of ice cold 50 mM Tris-HCl buffer; from tissue; host or cells: rat cerebellum (crude plasma membranes)", "T1 sequence (P10608 whole entry)": "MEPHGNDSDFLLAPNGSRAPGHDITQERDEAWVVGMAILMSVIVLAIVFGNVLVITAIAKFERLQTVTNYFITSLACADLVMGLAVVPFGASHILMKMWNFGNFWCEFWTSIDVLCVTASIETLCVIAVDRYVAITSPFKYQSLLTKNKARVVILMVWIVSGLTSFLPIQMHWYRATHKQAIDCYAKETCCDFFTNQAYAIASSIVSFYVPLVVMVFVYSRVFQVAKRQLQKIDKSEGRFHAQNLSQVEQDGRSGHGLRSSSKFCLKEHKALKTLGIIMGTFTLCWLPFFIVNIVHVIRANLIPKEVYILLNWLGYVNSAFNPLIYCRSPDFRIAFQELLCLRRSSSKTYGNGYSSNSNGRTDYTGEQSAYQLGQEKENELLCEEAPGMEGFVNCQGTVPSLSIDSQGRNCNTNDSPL", "assay": "Beta-adrenergic receptor binding ([3H]DHA displacement, rat cerebellum plasma membranes)", "conditions": "rat cerebellum cortex membranes, 1 nM [3H]DHA; read-out: IC50, inhibition of β-adrenergic receptor binding of tritiated dihydroalprenolol", "method": "Tissue preparation: Rat cerebellum plasma membranes were prepared by the method of U'Prichard et al, (J. Biol. Chem., 253, No. 14, pp. 5090-5102, 1978). Rat cerebellums were homogenized in 20 volumes of ice cold 50 mM Tris-HCl buffer (pH 7.4) with a Tekmar homogenizer. Crude plasma membranes were obtained by centrifugation at 45,000× g for 15 min with an intermediate rehomogenization in fresh buffer. The final pellets were resuspended in ten volumes of 50 mM buffer with 0.25M sucrose.\nBinding Assay: Rat cerebellum plasma membrane preparations (10 mg wet weight per ml in a volume of one ml) were incubated with 1 nM [^3 H] DHA in buffer, 1 mM catechol and 0.01% ascorbic acid, either in the presence or absence of various amounts of test substance at room temperature for 20 minutes. Bound and free radioligand were separated by addition of 3.5 ml buffer (0° C.) followed by rapid filtration through Whatman GF/B glass fiber filter. The filter was then washed rapidly with three 3.5 ml buffer (3X). Specific binding was defined as the amount of the [^3 H]DHA bound in the absence of competing ligand minus the amount bound in the presence of 10 uM (±) propranolol (nonspecific binding). […] IC50 (inhibitory concentration -50%) values were calculated from the displacement data after logit-log transformation with least squares linear regression."}}, "note": "Structures can show the parent of a compound that is named as a salt."}
{"compound": "CC(C)NCC(O)COc1cccc2ccccc12", "note": "(stereo not drawn) [Propranolol, propranolol, reference compound]", "values": [{"measurement": "effect of propranolol on blood pressure and heart rate changes produced by the compound of the invention", "setting": "[1]; propranolol 1 mg/kg iv", "result": "attenuated the hypertension and tachycardia"}, {"measurement": "effect of propranolol on hemodynamic effects (cardiac output, total peripheral resistance) of the compound of the invention", "setting": "[2]; propranolol 1 mg/kg iv after the 30 mg/kg dose, anesthetized SHR", "result": "reversed these hemodynamic effects"}]}
{"compound": "CC(C)NCC(O)c1cccnc1", "note": "(stereo not drawn) [Example 1B, oxalate salt]", "values": [{"measurement": "ED25", "setting": "[1]; Rattus norvegicus, iv, cumulative doses 0.1-30 mg/kg, read-out: calculated intravenous dose reducing mean arterial pressure by 25%", "result": 37, "unit": "mg/kg"}, {"measurement": "elevation of heart rate", "setting": "[3]", "result": 114, "unit": "beats/min"}, {"measurement": "time pressure remained reduced", "setting": "[3]", "result": "6 to 10", "unit": "h"}, {"measurement": "lowering of mean arterial pressure", "setting": "[3]; at 3-4 hours after dosing", "result": 39, "unit": "mmHg"}, {"measurement": "total peripheral resistance after compound", "setting": "[2]; pentobarbital anesthetized SHR, iv 0.1 to 30 mg/kg, decreased from control 3 units", "result": 1.1, "unit": "units"}, {"measurement": "cardiac output after compound", "setting": "[2]; pentobarbital anesthetized SHR, iv 0.1 to 30 mg/kg, increased from control 72 ml/min", "result": 92, "unit": "mL/min"}, {"measurement": "IC50", "setting": "β-adrenergic receptor", "result": 39, "unit": "µM"}]}
